Laboratory results as given in ChEMBL document CHEMBL4346694, “Identification of Three-Way DNA Junction Ligands through Screening of Chemical Libraries and Validation by Complementary in Vitro Assays” (J Med Chem, 2019).
Calls of active or inactive are those of the source. The rule behind the calls is not given here.

Legend:
[1] = Binding affinity to FAM-TWJ-S1/TWJ-S2/TAMRA-TWJ-S3 DNA (unknown origin) assessed as normalized FAM intensity at 1 uM measured at 5 mins interval for 1 hr by fluorescence assay relative to control
[2] = Binding affinity to FAM-TWJ-S1 DNA (unknown origin) assessed as normalized FAM intensity at 1 uM measured at 5 mins interval for 1 hr by fluorescence assay relative to control
[3] = Binding affinity to TWJ-S1/TWJ-S2/TWJ-S3 DNA (unknown origin) assessed as compound-DNA complex formation at 30 uM measured after 1 hr by sybrgold-staining based PAGE analysis
[4] = Binding affinity to FAM-TWJ-TAMRA DNA (unknown origin) assessed as change in melting temperature at 1 uM after 30 mins by FRET assay
[5] = Binding affinity to FAM-TWJ-TAMRA DNA (unknown origin) assessed as change in melting temperature at 1 uM after 30 mins in presence of 3 uM ds26 DNA by FRET assay
[6] = Binding affinity to FAM-TWJ-TAMRA DNA (unknown origin) assessed as change in melting temperature at 1 uM after 30 mins in presence of 10 uM ds26 DNA by FRET assay
[7] = Selectivity ratio of compound effect for binding affinity to FAM-TWJ-TAMRA DNA (unknown origin) assessed as change in melting temperature at 1 uM in absence of 10 uM ds26 DNA to compound effect for binding affinity to FAM-TWJ-TAMRA DNA (unknown origin) assessed as change in melting temperature at 1 uM in presence of 10 uM ds26 DNA
[8] = Selectivity ratio of Kapp for TWJ DNA (unknown origin) to Kapp for ds17 DNA by equilibrium dialysis method (unknown origin)
[9] = Binding affinity to TWJ DNA (unknown origin) assessed as equilibrium binding constant at 1:2 DNA to compound ratio after 1 hr by ESI-MS analysis
[10] = Binding affinity to ds17 DNA measured after 24 hrs by equilibrium dialysis method
[11] = Selectivity index, ratio of LD50 for human hTERT-BJ cells to LD50 for human MDA-MB-231 cells; format: toxicity; details: hTERT-BJ cells versus MDA-MB-231 cells, read-out: Selectivity Index
[12] = Binding affinity to TWJ DNA (unknown origin) measured after 24 hrs by equilibrium dialysis method
[13] = Binding affinity to ds17 DNA (unknown origin) assessed as equilibrium binding constant at 1:2 DNA to compound ratio after 1 hr by ESI-MS analysis
[14] = Selectivity index, ratio of LD50 for human hTERT-BJ cells to LD50 for human MCF7 cells; format: toxicity; details: hTERT-BJ cells versus MCF7 cells, read-out: Selectivity Index
[15] = system: MCF7; experiment: Antiproliferative activity against human MCF7 cells assessed as reduction in cell viability measured after 72 hrs by SRB assay; format: functional; details: MCF7, 72 h, read-out: LD50 (the source's name)
[16] = Binding affinity to ds17 DNA (unknown origin) assessed as equilibrium binding constant at 1:3 DNA to compound ratio after 1 hr by ESI-MS analysis
[17] = Selectivity ratio of K for TWJ DNA (unknown origin) to K for ds17 DNA (unknown origin)
[18] = system: MDA-MB-231; experiment: Antiproliferative activity against human MDA-MB-231 cells assessed as reduction in cell viability measured after 72 hrs by SRB assay; format: functional; details: MDA-MB-231, 72 h, read-out: LD50 (the source's name)
[19] = Cytotoxicity against human hTERT-BJ cells assessed as reduction in cell viability measured after 72 hrs by SRB assay; format: cell-based; details: read-out: LD50
[20] = system: MCF7; experiment: Induction of DNA damage in human MCF7 cells assessed as gammaH2AX accumulation at 10 times antiproliferative LD50 measured after 72 hrs by DAPI staining-based confocal laser scanning microscopic analysis; format: functional, cell-based
[21] = Binding affinity to FAM-TWJ-S1/TWJ-S2/TWJ-S3 DNA (unknown origin) assessed as compound-DNA complex formation at 12 uM measured after 1 hr in presence of ds12 DNA by sybrgold-staining based PAGE analysis

Ratio [1]	Ratio [2]	Activity [3]	ΔTm [4]	Structure (SMILES)	ΔTm [5]	ΔTm [6]	Selectivity ratio [7]	further results
63%	40%	inactive	0.8 °C	NCCCNC[C@]12c3ccccc3[C@](CNCCCN)(c3ccccc31)c1cc3ccccc3cc12				
72%	27%		11 °C	COCCOCCOCC[n+]1ccc(-c2c3nc(c(-c4cc[n+](CCOCCOCCOC)cc4)c4ccc([nH]4)c(-c4cc[n+](CCOCCOCCOC)cc4)c4nc(c(-c5cc[n+](CCOCCOCCOC)cc5)c5ccc2[nH]5)C=C4)C=C3)cc1	7 °C	4 °C	36%	
35%	80%		11.6 °C	c1cc2c3nc4c(cccc4cc3c1)CNCCOCCNCc1cccc3cc4cccc(c4nc13)CNCCOCCNC2	5.5 °C	4.6 °C	39%	
27%	100%	inactive	0.6 °C	CN(C)CCCNCC12c3ccccc3C(CNCCCN(C)C)(c3ccccc31)c1ccccc12				
46%	37%	Active	4.2 °C	c1cc2ccc3cc2cc1CNCCNCCNCc1ccc2ccc(cc2c1)CNCCNCCNC3	< 5 °C			

Continued, molecule first:

Structure (SMILES)	Ratio [1]	Ratio [2]	Activity [3]	ΔTm [4]	ΔTm [5]	ΔTm [6]	Selectivity ratio [7]	further results
C[n+]1ccc(-c2c3nc(c(-c4cc[n+](C)cc4)c4ccc([nH]4)c(-c4cc[n+](C)cc4)c4ccc([nH]4)c(-c4cc[n+](C)cc4)c4nc2C=C4)C=C3)cc1	86%	8%		22.5 °C	12 °C	8 °C	35%	
Cn1c[n+](-c2ccc3ccc4cccc5ccc2c3c45)cn1	22%	101%	inactive	1.5 °C				
c1cc2cc(c1)-c1cccc(c1)CNCCN1CCNCc3cccc(c3)-c3cccc(c3)CNCCN(CCNC2)CCNCc2cccc(c2)-c2cccc(c2)CNCC1	33%	109%	Active	17.5 °C	16.6 °C	15.9 °C	91%	Selectivity ratio [8]: > 2; K [9]: 3.9 ×10⁶ /M; Kapp [10]: 4.7 ×10⁴ /M; selectivity ratio [11]: 2; Kapp [12]: 6 ×10⁶ /M; K [13]: inactive; selectivity ratio [14]: 2; CC50 [15]: 0.1 µM; K [16]: 7.5 ×10³ /M; Selectivity ratio [17]: > 2; CC50 [18]: 1.3 µM; CC50 at 72 h [19]: 2.6 µM; Activity [20]: Active; Activity [21]: Active
c1cc2ccc3ccc(-[n+]4csc5ccccc54)c4ccc(c1)c2c34	23%	100%	inactive	0 °C				
c1cc2nc3ccc4cc3cc2cc1CNCCOCCNCc1ccc2nc3ccc(cc3cc2c1)CNCCOCCNC4	54%	27%		23 °C	20.4 °C	17.1 °C	84%	Selectivity ratio [8]: > 1; K [9]: 1.9 ×10⁹ /M; Kapp [10]: 3.8 ×10⁵ /M; Kapp [12]: 1.4 ×10⁷ /M; K [13]: 3.1 ×10⁴ /M; CC50 [15]: 4.8 µM; Selectivity ratio [17]: > 4; CC50 [18]: 2.8 µM; CC50 at 72 h [19]: 1 µM
c1cc2c3cccc(c3c1)CNCCOCCNCc1cccc3c(cccc13)CNCCOCCNC2	42%	118%	Active	10.4 °C	8.9 °C	8.5 °C	82%	Selectivity ratio [8]: > 1; K [9]: 4.7 ×10⁷ /M; Kapp [10]: 5.9 ×10⁵ /M; Kapp [12]: 8.7 ×10⁶ /M; K [13]: 7.5 ×10⁴ /M; CC50 [15]: 1.3 µM; Selectivity ratio [17]: > 2; CC50 [18]: 0.16 µM; CC50 at 72 h [19]: 0.04 µM
